In patent US20250228850A1, “COMBINATION OF A CXCR7 ANTAGONIST WITH AN S1P1 RECEPTOR MODULATOR” (Idorsia Pharmaceuticals Ltd., priority 2019, published 2025):
Entries after “also recorded” stand apart in the source; their conditions may differ.

How the values were obtained:
[1] = test system: cuprizone-induced demyelination mice; experiment: Cuprizone-induced demyelination model with cuprizone withdrawal, Experiment 2; assay type: in vivo, mouse (C57BL/6); conditions: week 5 to week 7; COMPOUND 100 mg/kg b.i.d., fingolimod 0.3 mg/kg q.d.
Method: Male C57BL/6 mice are exposed to a 0.2% cuprizone diet for six weeks and then switched to control food for one more week. Groups of 8-9 mice are dosed orally starting after five weeks of cuprizone exposure. It consists of three treatment groups: • 1. Vehicle (0.5% Methylcellulose/0.5% Tween® 80) b.i.d., from week 5 to week 7 • 2. Fingolimod (0.3 mg/kg) q.d.+Vehicle q.d., from week 5 to week 7 • 3. […] Hematology parameters, including lymphocyte count, are measured at the termination of the experiment, one hour after the last dosing. […] Brain samples are isolated and fixed for histopathological and immunohistochemistry examinations to assess the degree of demyelination (Luxol Fast Blue for myelin staining).

MOG-induced EAE mice [2] = experiment: Combination efficacy experiment in the MOG-induced EAE model (therapeutic setting); assay type: in vivo, mouse (C57BL/6); conditions: for efficacy on the clinical scores of the disease: from day 7 (just before onset), COMPOUND 100 mg/kg b.i.d., fingolimod 0.03 mg/kg q.d., combination effect from day 14 onwards
Method: The combination efficacy experiment is performed in the same mouse EAE model as described for the pilot experiments.
Groups of 10 mice are dosed orally starting just before the onset of disease (day 7). It consists of four treatment groups: • 1. Vehicle (0.5% Methylcellulose/0.5% Tween® 80) b.i.d., from day 7 • 2. Fingolimod (0.03 mg/kg) q.d.+Vehicle q.d., from day 7 • 3.
Clinical scores are assessed on a daily basis and disease development is compared between vehicle-treated mice and mice receiving the different treatments. The experiment is terminated at day 16 or day 17. Hematology parameters, including lymphocyte count, are measured at the termination of the experiment. […] CXCL12 plasma concentrations are determined using a commercial quantikine ELISA mouse CXCL12/SDF1c kit from R&D systems, according to manufacturer's instructions.

patients = conditions: cited from earlier work
[3] = test system: lymphocyte count in peripheral blood; experiment: Dose finding of fingolimod in healthy mice, lymphocyte count in peripheral blood; assay type: in vivo, mouse (C57BL/6)
Method: In parallel to the measurement of target engagement of COMPOUND, a second pilot experiment is performed. Healthy female C57BL/6 receive fingolimod at different doses in the range from 0.01 to 0.3 mg/kg, once daily (q.d.). The goal is to assess the dose-effect relationship of fingolimod on lymphocyte count in peripheral blood (which is an established biomarker to monitor pharmacological activity of S1P1 receptor modulators) in this strain of mouse over 24 h.

MOG-induced EAE mice [4] = experiment: Monotherapy efficacy experiment in MOG-induced EAE model (preventive setting); assay type: in vivo, mouse (C57BL/6)
Method: (§1) Female C57BL/6 mice are immunized with an emulsion of MOG in complete Freund's adjuvant (CFA) and pertussis toxin (day 0). A total of 150 μg of MOG is injected per mice at two sites subcutaneously in each flank of the abdomen. Mice are injected intraperitoneally with pertussis toxin a second time, 2 days after the first injection (day 2). Within 9 to 14 days, mice develop signs of paralysis which will be graded on a scale from 0 to 5 assessing the tail and limbs defined as: 0=no clinical sign of EAE, 0.5=end tail paralyzed or one limb weakness, 1=tail paralyzed or two limbs weakness, 1.5=tail paralyzed and one hind limb weakness, 2=tail paralyzed and bilateral partial hind limb paralysis, 2.5=tail paralyzed and unilateral complete hind limb paralysis, 2.75=score of 2.5+unilateral partial hind limb paralysis, 3=complete bilateral hind limb paralysis, 3.25=3+unilateral partial forelimb paralysis, 3.5=3+unilateral complete forelimb paralysis, 4=complete paralysis (moribund) and, 5=death or euthanized.
The disease progression follows a chronic progressive course with no remission.
It consists of four treatment groups: • 1. Vehicle (water) b.i.d., from day 0 • 2.
Clinical scores are assessed on a daily basis and disease development is compared between vehicle-treated mice and mice receiving COMPOUND. The cumulative disease score is calculated for each mouse by summing all the daily clinical scores over the 29-days study period. The experiment is terminated at day 29, 1 to 4 hours post dosing. […] CXCL12 plasma concentrations are determined using a commercial quantikine ELISA mouse CXCL12/SDF1c kit from R&D systems, according to manufacturer's instructions.
Groups of 10 mice are dosed orally starting at the day of disease induction (day 0). It consists of two treatment groups: • 1. Vehicle (0.5% Methylcellulose/0.5% Tween® 80) b.i.d., from day 0 • 2. Fingolimod (0.03 mg/kg) q.d.+Vehicle q.d., from day 0
Clinical scores are assessed on a daily basis and disease development is compared between vehicle-treated mice and mice receiving fingolimod. The cumulative disease score is calculated for each mouse by summing all the daily clinical scores over the 27-days study period. The experiment is terminated at day 27.

[5] = test system: cuprizone-induced demyelination mice; experiment: Cuprizone-induced demyelination mouse model, Experiment 1; assay type: in vivo, mouse (C57BL/6); conditions: 6 weeks
Method: Male C57BL/6 mice are exposed to cuprizone (CPZ; 150 mg/kg, b.i.d.), a […] chelating agent which leads to the death of mature oligodendrocytes, by oral gavage twice daily for six weeks. […] The experiment is terminated after 6 weeks of cuprizone exposure. […] CXCL12 plasma concentrations are measured as previously described in example A. Brain samples are isolated and fixed for histopathological and immunohistochemistry examinations to assess the degree of demyelination (Luxol Fast Blue for myelin staining) and the loss of mature oligodendrocytes (GSTiT staining).

[6] = First-in-human single-dose study in healthy male subjects (NCT03869320); assay type: in vivo; conditions: male, human, plasma
Method: (§2) […] […] In the 30 mg dose level group the effect of food is additionally investigated by administering the same treatment to the same subjects after a standardized high-fat breakfast.

healthy male subjects = experiment: as above; assay type: in vivo
Method: as §2

PLP-induced EAE mice = experiment: Monotherapy efficacy experiment in the PLP-induced EAE model (therapeutic setting); assay type: in vivo, mouse (SJL/J)
Method: as §1, with “SJL/J” for “C57BL/6”, “PLP” for “MOG”, “CFA” for “complete Freund's adjuvant (CFA)”, “100” for “150”, “16” for “14”, “euthanized. The disease progression follows a relapsing-remitting course with a first peak of disease occurring three to five days after the onset, followed by a remission phase and a second peak of the disease between 20-30 days after EAE induction.” for “euthanized.”
The study consists of four treatment groups: • 1. Vehicle (water) b.i.d., from disease onset for each mouse • 2.
Clinical scores are assessed on a daily basis, in a blinded manner and disease development is compared between vehicle-treated mice and mice receiving COMPOUND. The cumulative disease score is calculated for each mouse by summing all the daily clinical scores over the 30-days after treatment initiation. […] CXCL12 plasma concentrations are determined as previously described in example A.

[7] = test system: CXCL12 in plasma (biomarker of CXCR7 receptor antagonist); experiment: Dose finding of COMPOUND in naive mice, CXCL12 elevation in plasma; assay type: in vivo, mouse (C57BL/6); conditions: COMPOUND 100 mg/kg b.i.d. oral, 3 days, naive C57BL/6 mice, exposure at trough (14 hours after last dosing), only the highest dose tested
Source text: CXCL12 or CXCL11 plasma concentrations may be determined using methods well known in the art, e.g. an Ella® immunoassay (Bio-Techne®), or a commercial quantikine ELISA mouse CXCL12/SDF1α kit from R&D systems.

[8] = test system: lymphocyte count in peripheral blood; experiment: Dose finding of siponimod in healthy SJL/J mice, alone and with COMPOUND; assay type: in vivo, mouse (SJL/J); conditions: siponimod 0.3 mg/kg q.d. oral, healthy female SJL/J mice
Method: In a pilot experiment, healthy female SJL/J mice are dosed orally for 2 to 3 days with siponimod at different doses in the range from 0.03 to 1 mg/kg, once daily. The goal is to assess the dose-effect relationship of siponimod on lymphocyte count in peripheral blood (which is an established biomarker to monitor pharmacological activity of S1P1 receptor modulators) in this strain of mouse over 24 h.

[9] = COMPOUND 10, 100, 150 mg/kg b.i.d. from disease onset

## CCCCCCCCc1ccc(CCC(N)(CO)CO)cc1 [fingolimod, 2-amino-2-[2-(4-octylphenyl)ethyl]-propane-1,3-diol, reference compound]
[1]
  spontaneous remyelination in the corpus callosum one week after CPZ withdrawal: no effect
MOG-induced EAE mice [2]; fingolimod 0.03 mg/kg q.d. from day 7, at termination
  lymphocyte count in peripheral blood: reduction
MOG-induced EAE mice [2]
  efficacy on the clinical scores of the disease: minimal
patients; fingolimod, human
  time for lymphocyte counts to return to the normal range after stopping therapy: 1-2 months
  time remaining in the blood with pharmacodynamic effects (decreased lymphocyte counts) following the last dose: up to 2 months
[3]; fingolimod 0.03 mg/kg q.d., healthy female C57BL/6
  lymphocyte count reduction over 24 h: partial efficacy
[3]; fingolimod 0.3 mg/kg q.d.
  lymphocyte count reduction over 24 hours: fully efficacious
MOG-induced EAE mice [4]; fingolimod 0.03 mg/kg q.d. from day 0
  plasma CXCL12 levels: not associated with an increase
MOG-induced EAE mice [4]; fingolimod 0.03 mg/kg q.d. oral from day 0 (preventive)
  overall extent of EAE disease, cumulative disease scores over the 27-days study: exhibits efficacy

## O=C(N[C@H]1CCN(CC2CC2)C[C@@H]1C(=O)NC1(c2ncccn2)CC1)c1cc(-c2ccc(F)cc2F)on1 [COMPOUND, (3S,4S)-1-Cyclopropylmethyl-4-{[5-(2,4-difluoro-phenyl)-isoxazole-3-carbonyl]-amino}-piperidine-3-carboxylic acid (1-pyrimidin-2-yl-cyclopropyl)-amide]
[5]; COMPOUND 100 mg/kg b.i.d. preventive from day 0 (prev-CPZ)
  mature oligodendrocyte counts in the corpus callosum: increased significantly
[5]; COMPOUND 100 mg/kg b.i.d. preventive, co-administered with cuprizone from day 0 (prev-CPZ)
  myelin stain (Luxol Fast Blue) in the corpus callosum: increased significantly
[5]; COMPOUND 100 mg/kg b.i.d. therapeutic from week 3 (ther-CPZ)
  mature oligodendrocyte counts in the corpus callosum: increased significantly
[5]; COMPOUND 100 mg/kg b.i.d. therapeutic, starting 3 weeks after cuprizone start (ther-CPZ)
  myelin stain (Luxol Fast Blue) in the corpus callosum: increased significantly
[1]
  spontaneous remyelination in the corpus callosum one week after CPZ withdrawal: accelerated significantly
[6]; iv, i.v. microtracer, 200 mg dose level group, read-out: absolute bioavailability
  bioavailability: ~50%
[6]; single oral doses >=10 mg, fasted
  Tmax: 1.3 to 3 h
Healthy male subjects; 30 mg, standardized high-fat breakfast vs fasted
  food effect on the pharmacokinetics: no relevant food effect
Healthy male subjects; 1 to 200 mg single oral dose
  dose dependence of plasma CXCL12 concentrations: dose-dependently increase
  exposure increase across the dose range: essentially dose-proportional
Healthy male subjects; healthy volunteers, single dose
  CXCL11 concentrations: essentially unchanged
Healthy male subjects; oral microtracer, 100 mg dose level group
  route of excretion: mainly excreted in feces and to a minor extent in urine
Healthy male subjects; single oral dose, across tested dose range
  plasma CXCL12 levels compared to baseline: approximately 2 fold
Healthy male subjects; single oral doses from 1 to 200 mg, healthy male subjects
  safety and tolerability: safe and well tolerated
MOG-induced EAE mice [2]; COMPOUND 100 mg/kg b.i.d. from day 7, at termination
  CXCL12 plasma levels: increase
MOG-induced EAE mice [2]
  efficacy on the clinical scores of the disease: moderate
MOG-induced EAE mice [4]; COMPOUND 100 mg/kg b.i.d., preventive setting
  overall burden of EAE disease: significantly reduces
MOG-induced EAE mice [4]; COMPOUND 10, 30, 100 mg/kg b.i.d. from day 0, day 29, 1 to 4 hours post dosing
  plasma CXCL12 levels: dose-dependent increase
MOG-induced EAE mice [4]; COMPOUND 10, 30, 100 mg/kg b.i.d. oral from day 0 (preventive)
  overall extent of EAE disease, mean cumulative disease scores over the 29-days study: dose-dependent efficacy
PLP-induced EAE mice; COMPOUND 100 mg/kg b.i.d.
  CXCL11 plasma levels at trough: increases
  CXCL12 plasma levels at trough: increases
  clinical scores in the PLP-induced EAE model: maximally reduces
PLP-induced EAE mice; [9]
  plasma CXCL11 levels: dose-dependent increase
  plasma CXCL12 levels: dose-dependent increase
PLP-induced EAE mice; COMPOUND 10, 100, 150 mg/kg b.i.d. oral from disease onset (therapeutic)
  overall extent of the disease, mean cumulative disease scores over 30 days after treatment initiation: dose-dependent efficacy
[7]
  plasma CXCL12 increase over 24 h: sustain plasma CXCL12 increase over 24 h; also recorded: sustain CXCL12 plasma levels over 24 hours

## CCc1cc(/C(C)=N/OCc2ccc(C3CCCCC3)c(C(F)(F)F)c2)ccc1CN1CC(C(=O)O)C1 [siponimod, 1-(4-[1-[(E)-4-Cyclohexyl-3-trifluoromethyl-benzyloxyimino]-ethyl]-2-ethyl-benzyl)-azetidine-3-carboxylic acid]
[8]
  lymphocyte count reduction over 24 h: full efficacy
patients; siponimod, human
  persistence of residual pharmacodynamics effects (lowering of peripheral lymphocyte count) after the last dose: 3-4 weeks
  time remaining in the blood after stopping therapy: up to 10 days
patients; siponimod, within 10 days of stopping therapy
  patients whose lymphocyte counts returned to the normal range: 90 % of patients
